Data reported in PMC7618036, “An oral heme oxygenase inhibitor targets immunosuppressive perivascular macrophages in preclinical models of cancer” (Science translational medicine, 2025).

Experiments:
[1] = set-up: method as in PMID 19581737, PMID 22993376; settings: cited from earlier work
MMTV-PyMT tumors [2] = experiment: Gemcitabine tumor growth in Lyve1^Cre and Lyve1^WT MMTV-PyMT Hmox1^fl/fl mice; format: in vivo, mouse; settings: gemcitabine 6.6mg/kg/7days
Excerpt: Figure 1 LYVE-1^+ PvTAMs modulate the immune landscape and resistance to chemotherapy in cancer through their expression of HO-1. (A) Representative image of a frozen section of MMTV-PyMT tumor stained with DAPI (nuclei; blue) and antibodies against F4/80 (magenta), HO-1 (red), CD31 (green). Colocalizing pixels for F4/80 and HO-1 are shown in yellow. Scale bar is 50 µm. (B-E) Schematic depicting the transgene of the HO-1 reporter mice (HO-1^Luc/eGFP) (top panel) and representative dot plot of FACs-gated live (7AAD^-) cells from enzyme-dispersed MMTV-PyMT HO-1^Luc/eGFP tumors separated based on their respective expression of HO-1 (eGFP) and CD45 (bottom panel) (B). HO-1/eGFP normalized median fluorescent intensity (MFI) of the indicated tumoral cell populations with background MFI subtracted from WT mice (n=5) (C). Representative contour plot of FACs-gated live (7AAD^-), CD45^+F4/80^+ TAMs separated based on their expression of CD206 and MHCII (left) and histograms showing the HO-1/eGFP expression of the subsets alongside the background fluorescence in WT mice (right) (D). Representative histograms of the TAM populations identified in (D) for their surface expression of LYVE-1 alongside their respective fluorescence minus one (FMO) staining (E). (F) Quantitation of the respective TAM populations identified in (D) across MMTV-PyMT tumors (n=10). […]

MMTV-PyMT tumors [3] = experiment: Tumor growth in MMTV-PyMT mice bearing established spontaneous tumors; format: in vivo, mouse; settings: single agent, i.p. 25 µMol/kg/day
Method: Vertical dashed black lines mark the start of treatment (day 0) and horizontal red line marks 250 mm^3. Solid lines represent individual tumors and mice. Images in panel (A) and (B) were created using BioRender. ** P<0.01.
(D-G) The MMTV-PyMT mice in (B) were evaluated for evidence of toxicity, including weight change from treatment initiation (D), end of treatment (day 21) plasma ratio of AST:ALT enzymes (E), blood circulating immune cells assessed using flow cytometry (F) and pathology assessment of inflammatory cell infiltrate in the lungs alongside an additional cohort or WT non-tumor bearing mice given dual treatment for 21 days and then assessed at treatment cessation or 30 days after treatment cessation (G). Image in panel (A) was created using BioRender. Bar charts show the mean, error bars SD, and the dots show individual data points from individual tumors and mice. Line charts display the mean and SEM. Gemc.; gemcitabine. * P<0.05, ** P<0.01.
MN-MCA1 sarcoma cells were orthotopically implanted into syngeneic C57Bl/6 mice for tumors. A total of 2.5 x 10^5 cells in 100 μL RPMI were injected subcutaneously into female mice. In MMTV-PyMT mice, tumors arose spontaneously. When tumors became palpable, volumes were measured every 2-4 days using digital caliper measurements of the long (L) and short (S) dimensions of the tumor. […]

Compound | patients with pulmonary inflammation [1] | tumor growth (MMTV-PyMT tumors [2]; Lyve1^Cre mice) | tumor growth (MMTV-PyMT tumors [2]; Lyve1^WT mice) | tumor growth (MMTV-PyMT tumors [3])
Nc1ccn([C@@H]2O[C@H](CO)[C@@H](O)C2(F)F)c(=O)n1 [gemcitabine] | approximately 23% | long-term durable control of tumor growth | insensitive | –
Sn (IV) mesoporphyrin IX dichloride [SnMP] | – | – | – | did not control tumor growth
